Tests used:
[1] = clinical; conditions: both, human, plasma
Procedure: (§1) Two open-label, pharmacokinetic studies were carried out to evaluate the potential for systemic exposure of ALA and ALA and protoporphyrin IX (PpIX) when applied topically under occlusion, in a maximal use setting in patients with multiple actinic keratoses (AK) lesions on the upper extremities. In accordance with at least one embodiment, a 20% w/w topical composition of 5-aminolevulinic acid (ALA) was directly applied topically via an applicator to the upper extremities of the patients followed by covering with an occlusive, polyethylene film for a 3 hour incubation period. Light treatment was administered after the incubation period. Each subject received 10 J/cm^2 of visible blue light delivered at 10 mW/cm^2.
(§2) In the first of the two studies, a total of 29 participants were enrolled. The participants were males and non-pregnant females, aged 18 years or older. […] The subjects received one treatment and were followed until week four after treatment. The treatment area, designated at baseline for the duration of the study, was the extensor surface of both distal upper extremities, as defined in the protocol (i.e., the dorsal hands/forearms). In the second of the two studies, a total of 14 participants were enrolled. Males and non-pregnant females, aged 18 years or older, with at least six Grade 1 or Grade 2 AK lesions on one upper extremity treatment area and at least 12 Grade 1 or Grade 2 AK lesions on the other upper extremity treatment area, were eligible for the study.
(§3) The term “Cmax,” as used herein refers to maximum observed plasma concentrations based on actual values measured following study medication application.

[2] = Open-label maximal use pharmacokinetic study, topical ALA under occlusion (first study)
Procedure: as §1, §2, §3

[3] = Solubility in water; format: physicochemical
[4] = Open-label maximal use pharmacokinetic study, topical ALA under occlusion (another experiment)
Procedure: as §1, §2

[5] = clinical; conditions: both, human, plasma, topical or ocular, 354 mg
Procedure: as §1, §2

[6] = test system: actinic keratoses; experiment: Randomized vehicle-controlled photodynamic therapy study, ALA with LDPE occlusion and blue light; format: in vivo, human
From the text: The actinic keratoses were present on the upper extremities, more specifically, on the dorsal surface of the hands and/or the forearm area between the elbow and the base of the fingers. Subjects ranged from 45 to 90 years of age (mean 68 years) and 90% had Fitzpatrick Skin Type I, II or III. Subjects were randomized to treatment in a 1:1 ratio. ALA was applied to lesions on the dorsal surface of one hand or the forearm for each subject, and the dorsal surface of the hand or the forearm was then occluded with low density polyethylene barrier for three hours. Following removal of the low density polyethylene barrier, a 10 J/cm^2 dose of blue light was delivered at 10 mW/cm^2, with treatment repeated after 8 weeks if any lesion(s) remained in the treatment area.
The recurrence rate corresponds to the percentage of subjects with at least one recurrent lesion during the 12 month follow up period following the evaluation at twelve weeks who had previously achieved complete clearance at twelve weeks following treatment.

[7] = following a baseline correction
[8] = topical, 3 hour occlusion, not baseline corrected

Compound `Cl.NCC(=O)CCC(=O)O` [ALA, 5-amino-4-oxopentanoic acid hydrochloride] has an AUC(0-t) ([1]; topical) of 282 ng·h/mL, an AUC(0-t) ([1]; topical or ocular) of 577 ng·h/mL and a Cmax ([1]; topical or ocular, 354 mg) of under 110 ng/mL. For the same compound, the “ALA geometric mean maximum plasma concentration” value [2, 7] was 80 ng/mL, the “time of maximum plasma concentration (median)” value (“time” below) [2, 7] was 2 h and the “geometric mean maximum plasma concentration” value [2, 8] was “about 98 ng/mL”. The “time” value [2, 8] was 2 h, the solubility in water [3] was “highly soluble” and the “ALA geometric mean maximum plasma concentration” value [4, 7] was 39 ng/mL. For the same compound, the “time” value [4, 7] was 2 h, the “time” value ([4]; not baseline corrected) was 2 h and the “geometric mean maximum plasma concentration” value ([4]; topical, not baseline corrected) was “about 61 ng/ml”. For the same compound, the bioavailability [5] was about 1%, the “complete clearance (subjects with resolution of the actinic keratoses)” value ([6]; twelve weeks after initial treatment, 3 h LDPE occlusion, 10 J/cm^2 blue light, 42 out of 135 subjects) was 31% and the recurrence rate ([6]; twelve-month follow-up of subjects with complete clearance at twelve weeks) was 58%.
